Target: MK2 (Homo sapiens, UniProt P49137)
Test: Inhibition in solution assay of kinase MK2
Format: biochemical
Settings: IC50 extrapolated from the dose dependent inhibition graphs (FIG. 6)
From the text: Determination of affinity of MK2 inhibitors (IC50) through inhibition in solution assay of kinase MK2 by various compounds of general formula I-VI

Sequence of MK2 (P49137 whole entry, species assumed): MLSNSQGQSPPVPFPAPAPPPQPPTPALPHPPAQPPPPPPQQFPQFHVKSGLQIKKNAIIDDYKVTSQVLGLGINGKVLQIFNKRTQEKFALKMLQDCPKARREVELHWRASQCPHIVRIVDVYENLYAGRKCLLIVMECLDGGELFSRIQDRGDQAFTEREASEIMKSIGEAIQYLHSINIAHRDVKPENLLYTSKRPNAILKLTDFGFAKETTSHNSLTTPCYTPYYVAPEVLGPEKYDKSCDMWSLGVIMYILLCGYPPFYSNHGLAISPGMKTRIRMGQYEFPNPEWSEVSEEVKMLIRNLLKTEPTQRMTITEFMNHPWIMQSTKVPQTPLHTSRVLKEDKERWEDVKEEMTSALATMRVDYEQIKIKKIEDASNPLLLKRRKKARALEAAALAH

Which IC50 does the source give for Cc1ccc(-c2ccc3c(ccc4sc5c(c43)NC[C@@H](C)NC5=O)n2)cn1 [PF 3644022] here?
Its IC50 is 585 nM.
